Counter-ions that a name gives are not always drawn.
What was measured:
MFN1 gene = assay: Screening for MFN1 mRNA expression by qPCR in motor neurons derived from iPS cells of CMT patients with MFN2 mutations; format: cell-based, human; conditions: relative to vehicle (DMSO) defined as 1, motor neurons having the mutated MFN2 gene, compound added on day 10, RNA extracted on day 12
Source text: (§1) iPS cells established according to the method described in NPL 3 were used. The iPS cells were derived from peripheral-blood mononuclear cells (PBMCs) from CMT2 patients with MFN2 gene mutations (CMT1 (R94Q) and CMT2 (H128Y)) and healthy subjects without MFN2 mutations (Healthy). A feeder-free medium was used to perform maintenance culture of the iPS cells.
(§2) mRNA was extracted, and mRNA expression levels of MFN1 and MFN2 were quantified by qPCR.
(§3) The overview of the screening method is shown in the upper left of FIG. 2. Constructs expressing Lhx3, Ngn2, and Isl1 under tetracycline induction were introduced into the iPS cells using PiggyBac vectors, whereby stable lines were generated. Doxycycline was added to the iPS cells, and the iPS cells were cultured for 7 days using a neuro-differentiation medium to generate motor neurons (Imamura et al. Sci Transl Med 2017). […]
(§4) Screening was performed to search for existing drugs that increase the expression levels of the MIFN1 gene or MFN2 gene using the motor neurons having the mutated MFN2 gene. […] The expression levels of the MFN1 gene and the MFN2 gene are expressed as relative values with the mRNA expression levels thereof when a vehicle (DMSO) was administered being defined as 1.

MFN2 gene = assay: Screening for MFN2 mRNA expression by qPCR in motor neurons derived from iPS cells of CMT patients with MFN2 mutations; format: cell-based, human; conditions: relative to vehicle (DMSO) defined as 1, motor neurons having the mutated MFN2 gene, compound added on day 10, RNA extracted on day 12
Source text: as §1, §2, §3, §4

SMILES	Relative expression level of the MFN1 gene (MFN1 gene)	Relative expression level of the MFN2 gene (MFN2 gene)
CC(C)N=c1cc2n(-c3ccc(Cl)cc3)c3ccccc3nc-2cc1Nc1ccc(Cl)cc1 [Clofazimine, N,5-bis(4-chlorophenyl)-3-propan-2-yliminophenazin-2-amine]	1.889	1.197
CC[C@@H](CO)NC(=O)[C@@H]1C=C2c3cccc4[nH]cc(c34)C[C@H]2N(C)C1 [Methylergometrine Maleate, (6aR,9R)—N—((S)-1-hydroxybutan-2-yl)-7-methyl-4,6,6a,7,8,9-hexahydroindolo[4,3-fg]quinoline-9-carboxamide maleate]	2.007	3.676

Reference: patent publication US20250205229A1, “DRUG FOR TREATING OR PREVENTING CHARCOT-MARIE-TOOTH DISEASE” (Kyoto University, priority 2022, published 2025)
